Data reported in publication PMC6008491, “Discovery of a novel allosteric inhibitor scaffold for polyadenosine-diphosphate-ribose polymerase 14 (PARP14) macrodomain 2” (Bioorganic & Medicinal Chemistry, 2018).
Where a name gives a salt, the structure may show the parent alone.

target: T1, PARP14 MD2 (Homo sapiens, UniProt Q460N5); experiment: AlphaScreen competitive binding assay, displacement of ADP-ribose peptide from PARP14 MD2; parameters: PARP14 MD2 (second MD of PARP14); conditions: not given
T1 sequence (Q460N5 1003-1190 limits assumed): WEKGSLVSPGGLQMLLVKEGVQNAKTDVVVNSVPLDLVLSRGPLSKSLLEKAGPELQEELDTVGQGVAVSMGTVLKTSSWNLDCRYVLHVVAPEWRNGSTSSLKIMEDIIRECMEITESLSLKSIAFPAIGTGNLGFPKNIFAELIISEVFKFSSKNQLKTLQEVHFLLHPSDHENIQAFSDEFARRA
Description: Compounds were profiled for binding activity with PARP14 MD2 through a competitive (AlphaScreen™) binding assay measuring the displacement of ADP-ribose peptide from PARP14 MD2.[11a]

inhibition of PARP14 MD2 (in words)	Compound
inactive	CC(=O)Nc1ccccc1-c1cccc2c(=O)c3ccccc3[nH]c12 [compound 33, N-[2-(9-Oxo-9,10-dihydroacridin-4-yl)phenyl]acetamid]
inactive	COc1ccc2[nH]c3c(-c4ccccc4NC(C)=O)cccc3c2c1 [compound 39, N-[2-(6-Methoxy-9H-carbazol-1-yl)phenyl]acetamide]

Compound	inhibition of PARP14 MD2 (in words)
CC(=O)Nc1ccccc1-c1cccc2c3c([nH]c12)CCNC3 [compound 47, N-[2-(2,3,4,5-Tetrahydro-1H-pyrido[4,3-b]indol-6-yl)phenyl]acetamide hydrochloride]	inactive

same assay, conditions: Table 1; AlphaScreen, PARP14 MD2; read-out: IC50

Compound	IC50 [µM]
CCCCS(=O)(=O)Nc1ccccc1-c1cccc2c1[nH]c1ccccc12 [compound 64, N-(2-(9H-Carbazol-1-yl)phenyl)butane-1-sulfonamide]	3.3 ± 0.1
Nc1ccc(C(F)(F)F)cc1-c1cccc2c1[nH]c1ccccc12 [compound 60, 2-(9H-Carbazol-1-yl)-4-(trifluoromethyl)aniline]	> 50
CN(C)CC(=O)Nc1ccccc1-c1cccc2c1[nH]c1ccccc12 [compound 65, N-(2-(9H-carbazol-1-yl)phenyl)-2-(dimethylamino)acetamide]	5.5 ± 0.6
CCCS(=O)(=O)Nc1ccccc1-c1cccc2c1[nH]c1ccccc12 [compound 63, N-(2-(9H-Carbazol-1-yl)phenyl)propane-1-sulfonamide]	2.9 ± 0.1
CCN(C(C)=O)c1ccccc1-c1cccc2c1[nH]c1ccccc12 [compound 54, N-[2-(9H-Carbazol-1-yl)phenyl]-N-ethylacetamide]	> 50

More lines, now with the values ahead:

IC50 [µM]	Compound
0.9 ± 0.04	CCCC(=O)Nc1ccccc1-c1cccc2c1[nH]c1ccccc12 [compound 67, N-(2-(9H-carbazol-1-yl)phenyl)butyramide]
1.9 ± 0.07	O=C(Nc1ccccc1-c1cccc2c1[nH]c1ccccc12)c1ccccc1 [compound 77, N-(2-(9H-carbazol-1-yl)phenyl)benzamide]
12.7 ± 1.5	COc1cccc(C(=O)Nc2ccccc2-c2cccc3c2[nH]c2ccccc23)c1 [compound 81, N-(2-(9H-Carbazol-1-yl)phenyl)-3-methoxybenzamide]
> 50	COc1ccccc1C(=O)Nc1ccccc1-c1cccc2c1[nH]c1ccccc12 [compound 80, N-(2-(9H-Carbazol-1-yl)phenyl)-2-methoxybenzamide]
3.6 ± 0.3	O=S(=O)(Cc1ccccc1)Nc1ccccc1-c1cccc2c1[nH]c1ccccc12 [compound 79, N-(2-(9H-Carbazol-1-yl)phenyl)-1-phenylmethanesulfonamide]

same assay, conditions: Table 2; AlphaScreen, PARP14 MD2; read-out: IC50

IC50 [µM]	Compound
6.3 ± 0.6	O=C(Cc1ccc(Cl)c(Cl)c1)Nc1ccccc1-c1cccc2c1[nH]c1ccccc12 [compound 102, N-(2-(9H-Carbazol-1-yl)phenyl)-2-(3,4-dichlorophenyl)acetamide]
2.8 ± 0.2	O=C(Cc1ccccc1F)Nc1ccccc1-c1cccc2c1[nH]c1ccccc12 [compound 90, N-(2-(9H-Carbazol-1-yl)phenyl)-2-(2-fluorophenyl)acetamide]
4.2 ± 0.3	O=C(Cc1cccc(F)c1)Nc1ccccc1-c1cccc2c1[nH]c1ccccc12 [compound 104, N-(2-(9H-Carbazol-1-yl)phenyl)-2-(3-fluorophenyl)acetamide]
1.4 ± 0.1	O=S(=O)(Cc1cccc(F)c1)Nc1ccccc1-c1cccc2c1[nH]c1ccccc12 [compound 105, N-(2-(9H-Carbazol-1-yl)phenyl)-1-(3-fluorophenyl)methanesulfonamide]
6.9 ± 0.6	O=C(Cc1ccc2c(c1)OCO2)Nc1ccccc1-c1cccc2c1[nH]c1ccccc12 [compound 99, N-(2-(9H-Carbazol-1-yl)phenyl)-2-(benzo[d][1,3]dioxol-5-yl)acetamide]

same assay, conditions: text and figures; read-out: PARP14 MD2 IC50

IC50 [µM]	Compound
2.5	CC(=O)Nc1ccccc1-c1cccc2c1sc1ccccc12 [compound 27, N-[2-(Dibenzothiophen-4-yl)phenyl]acetamide]
> 50	CC(=O)Nc1ccccc1-c1cn2c3ccccc3c3cccc(c1=O)c32 [compound 20, N-[2-(4-Oxo-4H-pyrido[3,2,1-jk]carbazol-5-yl)phenyl]acetamide]
